One test deals with SK-LU-1. Nature of the test: Anticancer activity against human SKLU1 cells assessed as cell growth inhibition measured after 48 hrs by MTT assay. Type of test: functional, cell-based.
In a further test the test system is PC-3. Nature of the test: Anticancer activity against human PC3 cells assessed as cell growth inhibition measured after 48 hrs by MTT assay. Format: functional, cell-based.
The subject of another test is MCF7. In words: Anticancer activity against human MCF7 cells assessed as cell growth inhibition measured after 48 hrs by MTT assay. Type of test: functional, cell-based.
The next test has as its system HCT-15. Nature of the test: Anticancer activity against human HCT15 cells assessed as cell growth inhibition measured after 48 hrs by MTT assay. Type of test: functional, cell-based.
Another test concerns COS-7. Nature of the test: Cytotoxicity against African green monkey COS7 cells assessed as cell growth inhibition measured after 48 hrs by MTT assay. Format: cell-based, Chlorocebus aethiops.
For another test, the system named is U-251. Nature of the test: Anticancer activity against human U251 cells assessed as cell growth inhibition measured after 48 hrs by MTT assay. Format: functional, cell-based.
The next test has as its system K562. In words: Anticancer activity against human K562 cells assessed as cell growth inhibition measured after 48 hrs by MTT assay. Format: functional, cell-based.
Where [1] appears, read: Homo sapiens, SK-LU-1, 48 h, read-out: IC50.
[2] abbreviates: Homo sapiens, PC-3, 48 h, read-out: IC50.
Setting [3] is: Homo sapiens, MCF7, 48 h, read-out: IC50.
The mark [4] stands for this setting: Homo sapiens, HCT-15, 48 h, read-out: IC50.
Where [5] appears, read: Chlorocebus aethiops, COS-7, 48 h, read-out: IC50.
[6] abbreviates: Homo sapiens, U-251, 48 h, read-out: IC50.
The mark [7] stands for this setting: Homo sapiens, K562, 48 h, read-out: IC50.

The structures appear in SMILES notation.

Consider `O=C(O)CCCc1ccc(N(CCCl)CCCl)cc1` [CHLORAMBUCIL], for which the concentration for half-maximal inhibition (IC50) was 300 µM in the test with SK-LU-1 (setting [1]); 16.4 µM with PC-3 (setting [2]); over 100 µM with MCF7 (setting [3]); 3.11 µM in the test with HCT-15 (setting [4]); 43.5 µM in the test with COS-7 (setting [5]); 33.1 µM with U-251 (setting [6]). For the same compound, the IC50 in the test with K562 (setting [7]) was determined as 103 µM.

As for `Oc1cc(O)c(C(c2ccc(C(c3cc(Cl)c(O)cc3O)c3cc(Cl)c(O)cc3O)cc2)c2cc(Cl)c(O)cc2O)cc1Cl`, the half-inhibitory concentration (IC50) entry with SK-LU-1 (sk-lu-1), with PC-3 (pc-3), with MCF7 (mcf7), in the test with HCT-15 (hct-15), in the test on COS-7 (cos-7) and in the test on U-251 (u-251) was “Not Active” each time. In the test with K562 (k562), the IC50 result is listed as “Not Active”.

As for `O=C(COc1cc(OCC(=O)NCCO)c(C(c2ccc(C(c3cc(Cl)c(OCC(=O)NCCO)cc3OCC(=O)NCCO)c3cc(Cl)c(OCC(=O)NCCO)cc3OCC(=O)NCCO)cc2)c2cc(Cl)c(OCC(=O)NCCO)cc2OCC(=O)NCCO)cc1Cl)NCCO`, the concentration for half-maximal inhibition (IC50) entry in the test on SK-LU-1 (sk-lu-1), with PC-3 (pc-3), in the test on MCF7 (mcf7), in the test on HCT-15 (hct-15), with COS-7 (cos-7) and in the test with U-251 (u-251) was “Not Active” throughout. Moreover, the half-inhibitory concentration (IC50) result with K562 (k562) is reported as “Not Active”.

For `COc1ccc2c(c1)c(CC(=O)O)c(C)n2C(=O)c1ccc(Cl)cc1` [INDOMETHACIN], the half-maximal inhibitory concentration (IC50) with SK-LU-1 (setting [1]) is over 1000 µM; with PC-3 (setting [2]), over 1000 µM; in the test on MCF7 (setting [3]), over 1000 µM; in the test with HCT-15 (setting [4]) it was over 1000 µM; in the test on COS-7 (setting [5]), over 1000 µM; with U-251 (setting [6]), 20.4 µM. In addition, in the test on K562 (setting [7]), the half-maximal inhibitory concentration (IC50) turned out to be 190 µM.

As to `O=C(COc1cc(OCC(=O)NCCOC(=O)CCCc2ccc(N(CCCl)CCCl)cc2)c(C(c2ccc(C(c3cc(Cl)c(OCC(=O)NCCOC(=O)CCCc4ccc(N(CCCl)CCCl)cc4)cc3OCC(=O)NCCOC(=O)CCCc3ccc(N(CCCl)CCCl)cc3)c3cc(Cl)c(OCC(=O)NCCOC(=O)CCCc4ccc(N(CCCl)CCCl)cc4)cc3OCC(=O)NCCOC(=O)CCCc3ccc(N(CCCl)CCCl)cc3)cc2)c2cc(Cl)c(OCC(=O)NCCOC(=O)CCCc3ccc(N(CCCl)CCCl)cc3)cc2OCC(=O)NCCOC(=O)CCCc2ccc(N(CCCl)CCCl)cc2)cc1Cl)NCCOC(=O)CCCc1ccc(N(CCCl)CCCl)cc1`, the half-inhibitory concentration (IC50) with SK-LU-1 (setting [1]) was 80 µM; with PC-3 (setting [2]) it was 34 µM; with MCF7 (setting [3]), 81 µM; in the test with HCT-15 (setting [4]), 201 µM; with COS-7 (setting [5]) it was over 1000 µM; in the test on U-251 (setting [6]), 24.3 µM. Further, the IC50 in the test with K562 (setting [7]) came to 51.4 µM.

Consider `CC(C)Cc1ccc(C(C)C(=O)O)cc1` (configuration not stated) [IBUPROFEN], for which the 50% inhibitory concentration (IC50) with SK-LU-1 (setting [1]) was 90.6 µM; with PC-3 (setting [2]), over 1000 µM; in the test with MCF7 (setting [3]) it was 92.1 µM; in the test with HCT-15 (setting [4]), over 1000 µM; in the test with COS-7 (setting [5]), over 1000 µM; with U-251 (setting [6]), over 1000 µM. In the test with K562 (setting [7]), the IC50 was over 1000 µM.

Consider `CC(C)Cc1ccc(C(C)C(=O)OCCNC(=O)COc2cc(OCC(=O)NCCOC(=O)C(C)c3ccc(CC(C)C)cc3)c(C(c3ccc(C(c4cc(Cl)c(OCC(=O)NCCOC(=O)C(C)c5ccc(CC(C)C)cc5)cc4OCC(=O)NCCOC(=O)C(C)c4ccc(CC(C)C)cc4)c4cc(Cl)c(OCC(=O)NCCOC(=O)C(C)c5ccc(CC(C)C)cc5)cc4OCC(=O)NCCOC(=O)C(C)c4ccc(CC(C)C)cc4)cc3)c3cc(Cl)c(OCC(=O)NCCOC(=O)C(C)c4ccc(CC(C)C)cc4)cc3OCC(=O)NCCOC(=O)C(C)c3ccc(CC(C)C)cc3)cc2Cl)cc1` (configuration not stated), for which the half-inhibitory concentration (IC50) in the test with SK-LU-1 (setting [1]), with PC-3 (setting [2]), in the test with MCF7 (setting [3]), with HCT-15 (setting [4]), in the test on COS-7 (setting [5]) and in the test with U-251 (setting [6]) was over 1000 µM in each case. Moreover, the concentration for half-maximal inhibition (IC50) in the test with K562 (setting [7]) was over 1000 µM.

Take `COc1ccc2cc([C@H](C)C(=O)O)ccc2c1` [NAPROXEN]: the half-inhibitory concentration (IC50) in the test with SK-LU-1 (setting [1]), in the test with PC-3 (setting [2]), in the test on MCF7 (setting [3]), in the test with HCT-15 (setting [4]), in the test with COS-7 (setting [5]) and in the test on U-251 (setting [6]) was over 1000 µM throughout. Also, in the test on K562 (setting [7]), the half-inhibitory concentration (IC50) came out at 181 µM.

On to `COC(=O)COc1cc(OCC(=O)OC)c(C(c2ccc(C(c3cc(Cl)c(OCC(=O)OC)cc3OCC(=O)OC)c3cc(Cl)c(OCC(=O)OC)cc3OCC(=O)OC)cc2)c2cc(Cl)c(OCC(=O)OC)cc2OCC(=O)OC)cc1Cl`, for which the half-inhibitory concentration (IC50) entry in the test with SK-LU-1 (sk-lu-1), with PC-3 (pc-3), in the test with MCF7 (mcf7), with HCT-15 (hct-15), with COS-7 (cos-7) and with U-251 (u-251) was “Not Active” throughout. Also, the 50% inhibitory concentration (IC50) entry in the test on K562 (k562) is recorded as “Not Active”.

`COc1ccc2cc([C@H](C)C(=O)OCCNC(=O)COc3cc(OCC(=O)NCCOC(=O)[C@@H](C)c4ccc5cc(OC)ccc5c4)c(C(c4ccc(C(c5cc(Cl)c(OCC(=O)NCCOC(=O)[C@@H](C)c6ccc7cc(OC)ccc7c6)cc5OCC(=O)NCCOC(=O)[C@@H](C)c5ccc6cc(OC)ccc6c5)c5cc(Cl)c(OCC(=O)NCCOC(=O)[C@@H](C)c6ccc7cc(OC)ccc7c6)cc5OCC(=O)NCCOC(=O)[C@@H](C)c5ccc6cc(OC)ccc6c5)cc4)c4cc(Cl)c(OCC(=O)NCCOC(=O)[C@@H](C)c5ccc6cc(OC)ccc6c5)cc4OCC(=O)NCCOC(=O)[C@@H](C)c4ccc5cc(OC)ccc5c4)cc3Cl)ccc2c1`: the half-maximal inhibitory concentration (IC50) was over 1000 µM in the test on SK-LU-1 (setting [1]); over 1000 µM in the test with PC-3 (setting [2]); over 1000 µM in the test on MCF7 (setting [3]); over 1000 µM with HCT-15 (setting [4]); over 1000 µM with COS-7 (setting [5]); 50.3 µM in the test with U-251 (setting [6]). Further, in the test with K562 (setting [7]), the IC50 was over 1000 µM.

Take `COc1ccc2c(c1)c(CC(=O)OCCNC(=O)COc1cc(OCC(=O)NCCOC(=O)Cc3c(C)n(C(=O)c4ccc(Cl)cc4)c4ccc(OC)cc34)c(C(c3ccc(C(c4cc(Cl)c(OCC(=O)NCCOC(=O)Cc5c(C)n(C(=O)c6ccc(Cl)cc6)c6ccc(OC)cc56)cc4OCC(=O)NCCOC(=O)Cc4c(C)n(C(=O)c5ccc(Cl)cc5)c5ccc(OC)cc45)c4cc(Cl)c(OCC(=O)NCCOC(=O)Cc5c(C)n(C(=O)c6ccc(Cl)cc6)c6ccc(OC)cc56)cc4OCC(=O)NCCOC(=O)Cc4c(C)n(C(=O)c5ccc(Cl)cc5)c5ccc(OC)cc45)cc3)c3cc(Cl)c(OCC(=O)NCCOC(=O)Cc4c(C)n(C(=O)c5ccc(Cl)cc5)c5ccc(OC)cc45)cc3OCC(=O)NCCOC(=O)Cc3c(C)n(C(=O)c4ccc(Cl)cc4)c4ccc(OC)cc34)cc1Cl)c(C)n2C(=O)c1ccc(Cl)cc1`: the IC50 in the test with SK-LU-1 (setting [1]) is over 1000 µM; with PC-3 (setting [2]), over 1000 µM; in the test with MCF7 (setting [3]) it was over 1000 µM; in the test with HCT-15 (setting [4]) it was over 1000 µM; in the test on COS-7 (setting [5]), over 1000 µM; in the test with U-251 (setting [6]), 23.1 µM. In addition, in the test with K562 (setting [7]), the IC50 was over 1000 µM.
